Consider 22 compounds from patent US12187723B2 (BRISTOL-MYERS SQUIBB COMPANY, priority 2019, dated 2025).

Molecules are shown by their SMILES. Bounds are passed on as bounds.

The assay deals with T1, human TLR9 (Homo sapiens, UniProt Q9NR96).
T1 construct: host or cells: HEK-Blue cells
T1 sequence (Q9NR96 26-1032): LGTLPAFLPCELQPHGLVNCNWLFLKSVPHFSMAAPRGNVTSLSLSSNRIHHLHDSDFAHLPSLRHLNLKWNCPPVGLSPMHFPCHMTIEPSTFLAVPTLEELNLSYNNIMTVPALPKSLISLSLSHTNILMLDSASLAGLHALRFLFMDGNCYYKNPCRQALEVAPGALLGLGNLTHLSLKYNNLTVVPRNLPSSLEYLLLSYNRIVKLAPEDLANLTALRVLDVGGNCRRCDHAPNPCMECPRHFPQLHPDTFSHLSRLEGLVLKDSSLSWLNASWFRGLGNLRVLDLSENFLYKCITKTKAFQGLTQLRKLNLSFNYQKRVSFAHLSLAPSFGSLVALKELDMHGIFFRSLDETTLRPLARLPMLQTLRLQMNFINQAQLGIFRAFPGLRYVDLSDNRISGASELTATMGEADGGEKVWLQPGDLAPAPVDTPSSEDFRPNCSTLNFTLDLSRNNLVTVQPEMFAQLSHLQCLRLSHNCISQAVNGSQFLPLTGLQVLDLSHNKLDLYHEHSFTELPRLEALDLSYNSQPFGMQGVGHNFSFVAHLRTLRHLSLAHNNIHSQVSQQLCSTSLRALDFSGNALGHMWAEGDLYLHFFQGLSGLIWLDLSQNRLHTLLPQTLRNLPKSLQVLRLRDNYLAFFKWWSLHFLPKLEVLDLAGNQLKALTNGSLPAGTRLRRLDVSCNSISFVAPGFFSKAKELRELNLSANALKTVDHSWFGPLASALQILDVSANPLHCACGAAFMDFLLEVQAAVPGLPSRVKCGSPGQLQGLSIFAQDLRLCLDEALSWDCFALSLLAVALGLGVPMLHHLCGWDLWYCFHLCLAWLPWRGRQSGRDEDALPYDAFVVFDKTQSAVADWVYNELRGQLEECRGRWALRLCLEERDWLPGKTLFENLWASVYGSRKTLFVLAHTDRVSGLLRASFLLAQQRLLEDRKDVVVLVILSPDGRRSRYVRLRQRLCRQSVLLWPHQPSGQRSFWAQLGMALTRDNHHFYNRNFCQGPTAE
The experiment in a line: TLR9 inhibition reporter assay (HEK-Blue SEAP). The format is cell-based. The settings on record: HEK-Blue cells overexpressing human TLR9, ODN2006 5 nM, 22 hour incubation. A digest of the protocol: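 Dose–response from 0.05 nM to 50 μM was run in HEK-Blue human TLR7, TLR8 and TLR9 reporter cells. After 30 min at room temperature with compound, ligand was added (TLR7 gardiquimod 7.5 μM; TLR8 R848 15.9 μM; TLR9 ODN2006 5 nM) and SEAP measured next day, at 22 h.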
Usually IC50 stands for the midpoint of a concentration-inhibition curve. A lower IC50 goes with inhibition by little substance. On to `COc1cc(-c2cc3[nH]c(=O)n([C@@H]4CCCN(C5CCOC5)C4)c3cc2C(C)C)cn2ncnc12` (stereo partly drawn) [Example 216, 6-isopropyl-5-(8-methoxy-[1,2,4]triazolo[1,5-a]pyridin-6-yl)-1-((3R)-1-(tetrahydrofuran-3-yl)piperidin-3-yl)-1,3-dihydro-2H-benzo[d]imidazol-2-one], for which the IC50 is greater than 50 µM.
Then `COc1cc(-c2cc3[nH]c(=O)n([C@H]4CCCN(CC(N)=O)C4)c3cc2C(C)C)cn2ncnc12` [Example 220, (S)-2-(3-(6-isopropyl-5-(8-methoxy-[1,2,4]triazolo[1,5-a]pyridin-6-yl)-2-oxo-2,3-dihydro-1H-benzo[d]imidazol-1-yl)piperidin-1-yl)acetamide], with greater than 50 µM.
Then `COc1cc(-c2cc3[nH]c(=O)n([C@@H]4CCCN(CCC(C)(C)C)C4)c3cc2C(C)C)cn2ncnc12` [Example 210, (R)-1-(1-(3,3-dimethylbutyl)piperidin-3-yl)-6-isopropyl-5-(8-methoxy-[1,2,4]triazolo[1,5-a]pyridin-6-yl)-1,3-dihydro-2H-benzo[d]imidazol-2-one], with 2.36 µM.
With `CCc1cc2c(cc1-c1cc(OC)c3ncnn3c1)[nH]c(=O)n2[C@@H]1CCCN(CC2CC2)C1` [Example 182, (R)-1-(1-(cyclopropylmethyl)piperidin-3-yl)-6-ethyl-5-(8-methoxy-[1,2,4]triazolo[1,5-a]pyridin-6-yl)-1,3-dihydro-2H-benzo[d]imidazol-2-one], half-maximal inhibition (IC50) required 7.94 µM. Compared with the last compound, the IC50 is about 3.4-fold higher.
Then `COc1cc(-c2cc3[nH]c(=O)n([C@H]4CC[C@@H](N(C)C)CC4)c3cc2C(C)C)cn2ncnc12` [Example 191, 1-((1s,4s)-4-(dimethylamino)cyclohexyl)-6-isopropyl-5-(8-methoxy-[1,2,4]triazolo[1,5-a]pyridin-6-yl)-1,3-dihydro-2H-benzo[d]imidazol-2-one], with 11.7 µM; and `Cc1c(-c2cc3[nH]c(=O)n([C@H]4CC[C@@H](NCC5CCOCC5)CC4)c3cc2C(C)C)cn2ncnc2c1C` [Example 200, 5-(7,8-dimethyl-[1,2,4]triazolo[1,5-a]pyridin-6-yl)-6-isopropyl-1-((1s,4s)-4-(((tetrahydro-2H-pyran-4-yl)methyl)amino)cyclohexyl)-1,3-dihydro-2H-benzo[d]imidazol-2-one], with 7.05 µM.
Then `CCc1cc2c(cc1-c1cc(OC)c3ncnn3c1)[nH]c(=O)n2[C@H]1CC[C@@H](NC2COC2)CC1` [Example 170, 6-ethyl-5-(8-methoxy-[1,2,4]triazolo[1,5-a]pyridin-6-yl)-1-((1s,4s)-4-(oxetan-3-ylamino)cyclohexyl)-1,3-dihydro-2H-benzo[d]imidazol-2-one], with 20 µM; and `COc1cc(-c2cc3[nH]c(=O)n(C4CCN(CCS(C)(=O)=O)CC4)c3cc2C(C)C)cn2ncnc12` [Example 224, 6-isopropyl-5-(8-methoxy-[1,2,4]triazolo[1,5-a]pyridin-6-yl)-1-(1-(2-(methylsulfonyl)ethyl)piperidin-4-yl)-1,3-dihydro-2H-benzo[d]imidazol-2-one], with greater than 50 µM; and `CCc1cc2c(cc1-c1cc(OC)c3ncnn3c1)[nH]c(=O)n2[C@@H]1CCCN(CC2CCOCC2)C1` [Example 175, (R)-6-ethyl-5-(8-methoxy-[1,2,4]triazolo[1,5-a]pyridin-6-yl)-1-(1-((tetrahydro-2H-pyran-4-yl)methyl)piperidin-3-yl)-1,3-dihydro-2H-benzo[d]imidazol-2-one], with 7.39 µM.
As for `COc1cc(-c2cc3[nH]c(=O)n([C@@H]4CCCN(CC5CCCC5)C4)c3cc2C(C)C)cn2ncnc12` [Example 211, (R)-1-(1-(cyclopentylmethyl)piperidin-3-yl)-6-isopropyl-5-(8-methoxy-[1,2,4]triazolo[1,5-a]pyridin-6-yl)-1,3-dihydro-2H-benzo[d]imidazol-2-one], half-maximal inhibition (IC50) was put at 2.98 µM.
`COc1cc(-c2cc3[nH]c(=O)n([C@H]4CC[C@H](NC5CCN(C(C)C)CC5)CC4)c3cc2C(C)C)cn2ncnc12` [Example 207, 6-isopropyl-1-((1r,4r)-4-((1-isopropylpiperidin-4-yl)amino)cyclohexyl)-5-(8-methoxy-[1,2,4]triazolo[1,5-a]pyridin-6-yl)-1,3-dihydro-2H-benzo[d]imidazol-2-one] had an IC50 of 4.63 µM.
With `COCCN1CCC[C@@H](n2c(=O)[nH]c3cc(-c4cc(OC)c5ncnn5c4)c(C(C)C)cc32)C1` (single isomer, unassigned) [Example 225] the figure was 33.8 µM; with `COc1cc(-c2cc3[nH]c(=O)n(C4CCC(N5CCNC(=O)C5)CC4)c3cc2C(C)C)cn2ncnc12` (single isomer, unassigned) [Example 234, 6-isopropyl-5-(8-methoxy-[1,2,4]triazolo[1,5-a]pyridin-6-yl)-1-(4-(3-oxopiperazin-1-yl)cyclohexyl)-1,3-dihydro-2H-benzo[d]imidazol-2-one], greater than 50 µM.
With `COc1cc(-c2cc3[nH]c(=O)n(C4CCC(N5CCCC5)CC4)c3cc2C(C)C)cn2ncnc12` (stereo not shown) [Example 231, 6-isopropyl-5-(8-methoxy-[1,2,4]triazolo[1,5-a]pyridin-6-yl)-1-(4-(pyrrolidin-1-yl)cyclohexyl)-1,3-dihydro-2H-benzo[d]imidazol-2-one] the figure was 15.1 µM; with `COc1cc(-c2cc3[nH]c(=O)n([C@H]4CC[C@H](NC5COC5)CC4)c3cc2C(C)C)cn2ncnc12` [Example 201, 6-isopropyl-5-(8-methoxy-[1,2,4]triazolo[1,5-a]pyridin-6-yl)-1-((1r,4r)-4-(oxetan-3-ylamino)cyclohexyl)-1,3-dihydro-2H-benzo[d]imidazol-2-one], 22.9 µM.
With `COc1cc(-c2cc3[nH]c(=O)n(C4CCC(N5CC6(CCOCC6)C5)CC4)c3cc2C(C)C)cn2ncnc12` (single isomer, unassigned) [Example 235, 1-(4-(7-oxa-2-azaspiro[3.5]nonan-2-yl)cyclohexyl)-6-isopropyl-5-(8-methoxy-[1,2,4]triazolo[1,5-a]pyridin-6-yl)-1,3-dihydro-2H-benzo[d]imidazol-2-one] the figure was 11.2 µM; with `COc1cc(-c2cc3[nH]c(=O)n(C4CCC(N5CC(O)(C(F)(F)F)C5)CC4)c3cc2C(C)C)cn2ncnc12` (single isomer, unassigned) [Example 241, 1-(4-(3-hydroxy-3-(trifluoromethyl)azetidin-1-yl)cyclohexyl)-6-isopropyl-5-(8-methoxy-[1,2,4]triazolo[1,5-a]pyridin-6-yl)-1,3-dihydro-2H-benzo[d]imidazol-2-one], greater than 50 µM.
In the case of `CCc1cc2c(cc1-c1cc(OC)c3ncnn3c1)[nH]c(=O)n2[C@@H]1CCCN(CC)C1` [Example 171, (R)-6-ethyl-1-(1-ethylpiperidin-3-yl)-5-(8-methoxy-[1,2,4]triazolo[1,5-a]pyridin-6-yl)-1,3-dihydro-2H-benzo[d]imidazol-2-one], half-maximal inhibition (IC50) required 10.7 µM.
With `COc1cc(-c2cc3[nH]c(=O)n(C4CCC(N5CC6(CCOCC6)C5)CC4)c3cc2C(C)C)cn2ncnc12` (single isomer, unassigned) [Example 236, 1-(4-(7-oxa-2-azaspiro[3.5]nonan-2-yl)cyclohexyl)-6-isopropyl-5-(8-methoxy-[1,2,4]triazolo[1,5-a]pyridin-6-yl)-1,3-dihydro-2H-benzo[d]imidazol-2-one] the figure was 2.59 µM.
Then `CCc1cc2c(cc1-c1cc(OC)c3ncnn3c1)[nH]c(=O)n2[C@@H]1CCCN(CC(C)(C)C)C1` [Example 180, (R)-6-ethyl-5-(8-methoxy-[1,2,4]triazolo[1,5-a]pyridin-6-yl)-1-(1-neopentylpiperidin-3-yl)-1,3-dihydro-2H-benzo[d]imidazol-2-one], with 10.3 µM.
With `CCc1cc2c(cc1-c1cc(OC)c3ncnn3c1)[nH]c(=O)n2[C@@H]1CCCN(CCOC)C1` [Example 227, (R)-6-ethyl-5-(8-methoxy-[1,2,4]triazolo[1,5-a]pyridin-6-yl)-1-(1-(2-methoxyethyl)piperidin-3-yl)-1,3-dihydro-2H-benzo[d]imidazol-2-one] the figure was 15.2 µM; with `COc1cc(-c2cc3[nH]c(=O)n(C4CCC(N5CC(OC)C5)CC4)c3cc2C(C)C)cn2ncnc12` (stereo not shown) [Example 238, 6-isopropyl-5-(8-methoxy-[1,2,4]triazolo[1,5-a]pyridin-6-yl)-1-(4-(3-methoxyazetidin-1-yl)cyclohexyl)-1,3-dihydro-2H-benzo[d]imidazol-2-one], 8.09 µM.
